{
  "source": "patent US20230293524A1",
  "about": "“OTIC FORMULATIONS FOR DRUG-INDUCED OTOTOXICITY” (Spiral Therapeutics Inc, priority 2019, published 2023)",
  "key": {"[1]": {"tested_on": "cisplatin-induced hearing loss (CIHL)", "assay": "3-day acute CIHL animal model, ABR thresholds", "type": "in vivo", "settings": "3 days", "experimental": "Study Design includes: […] Formulation was delivered IT unilaterally (right ear) 30 min prior CIS. There was gross visual necropsy observation performed at termination. Tissue collected for CCG evaluation • A: Cis IP/Vehicle P407 • B: Cis IP/STS 16 mg/ml in P407 • C: Cis IP/OMY-150 16 mg/ml in P407 • D: Cis IP/OMY-150 50 mg/ml in P407"}, "[2]": {"assay": "Pharmacokinetic study after intratympanic administration", "type": "in vivo, rats", "experimental": "Female rats (Charles River) weighing 200-300 g of approximately 12-16 weeks of age served as subjects (N=4 per group). Prior to any procedures, animals were anesthetized using a combination of xylazine (10 mg/kg), ketamine (50 mg/kg), and acepromazine (1 mg/kg) for up to an hour via the intraperitoneal route. If needed, an intraoperative booster was administered intraperitoneal representing a one-tenth of the original dose.\nIntratympanic injection—Each animal was positioned so that the head was tilted at an angle to favor injection towards the round window niche. […] Formulations were delivered using a perfusion pump at the rate of 2 μL/sec. Contact with the round window membrane was maintained for 30 minutes by placing the animal in a recumbent position. During the procedure and until recovery, animals were placed on a temperature controlled (40° C.) heating pad until consciousness was regained at which time they were returned to the vivarium.\nPerilymph sampling procedure—The skin behind the ear of anesthetized rats was shaved and disinfected with povidone-iodine. An incision was then made behind the ear, and muscles were carefully retracted from over the bulla. A hole was drilled through the bulla using a dental burr so that the middle ear was exposed and accessed. The cochlea and the round window membrane were visualized under a stereo surgical microscope. The basal turn of bulla was cleaned by using small cotton ball. A unique microhole was hand drilled through the bony shell of the cochlea (cochlear capsule) adjacent to the round window. Perilymph (about 2 μL) was then collected using a microcapillary inserted into the cochlear scala tympani. Perilymph samples were added to a vial containing 18 μL of acetonitrile/water, stored at −80° C. until analysis.\nCochlear epithelium sampling procedure—Under a dissection scope, the bulla was opened, and the cochlea was exposed by removing all surrounding muscles, blood vessels and bone tissues. Holding the bulla, the cochlear wall bony structure was removed working from the base to the apex of the cochlea, exposing the organ of Corti. The exposed cochlear epithelium was gently dabbed with cotton swab to remove excess of liquid from tissue, carefully transferred to labelled tube. Each 2-mL plastic tube that contained acid washed 2.8 mm stainless steel beads was pre-weighed. The tubes were reweighed after adding cochlea epithelium and weights were recorded. All cochlea epithelium samples were placed in dry ice immediately after collection and stored at −80° C. prior to analysis.\nPlasma sampling procedure—Blood samples were collected by cardiac puncture into labeled micro-tubes, containing lithium heparin as anticoagulant. Plasma were immediately harvested from the blood by centrifugation and collection for supernatants. All plasma samples were stored at −80° C. prior to analysis.\nSamples were extracted by protein precipitation, then vortexed and centrifuged. The supernatant was collected and diluted with two folds of water. A high-performance liquid chromatography system (Agilent 1200 series) with Waters Cortecs C18 Plus column (50*4.6 mm, 2.7 μm) were used. The flow rate was set at 0.700 mL/min. A gradient method with an analytical run time of 5 minutes was used. Mobile phase A consisted of 0.01% ammonium formate, 0.03% formic acid in water. Mobile phase B consisted of 0.01% ammonium formate, 0.03% formic acid in acetonitrile: methanol (70:30, v/v). The gradient began with 30% B, stepped to 70% B at 2.75 minutes and held for 1 minute and then stepped back to 30% B to re-equilibrate the column.\nIonizations and detection of analyte and internal standard were performed on a triple quadruple mass spectrometer, API 5500 Q-Trap equipped with Turbo IonSpray@, from SCIEX (Toronto, Canada). Electro spray ionization (ESI) mass spectra was operated in the positive ion mode. Carbutamide was used as the internal standard (IS). […]"}, "[3]": {"assay": "Cisplatin binding, % bound"}, "[4]": {"tested_on": "outer hair cells (OHCs) and inner hair cells (IHCs)", "assay": "Cochlear explant model: hair cell protection against cisplatin", "type": "cell-based, Sprague-Dawley rats", "settings": "for EC100: Rattus norvegicus, read-out: Ex-vivo Efficacy Conc. for complete protection of hair cells (uM)", "description": "(§1) For hair cell and spiral ganglion assessment, postnatal Sprague-Dawley rats (P2-P4) of both sexes are anesthetized with isoflurane and decapitated. Temporal bones are removed and transferred to a cell culture dish with ice-cold Ca^2+/Mg^2+-containing phosphate-buffered saline (PBS; Invitrogen) or cold HBSS medium enriched with glucose. Under microscopic visualization, the cochlear capsules are carefully removed from the temporal bone using forceps and transferred to a new cell culture dish containing ice-cold PBS. The cochleae are then dissected from the cochlear capsule using fine forceps. The stria vascularis is removed from the cochlear tissue and discarded. Dissected cochlear epithelia are transferred to permeable membrane inserts (Millicell organotypic culture plate inserts, Millipore) which are placed into 1 mL of culture media (Dulbecco's modified Eagle's medium (high glucose, Glutamax, 25 mM HEPES) with 10% fetal bovine serum, 1% N2 supplement and 10 units/ml penicillin) in a 6-well plate. Up to 4 cochleae are placed onto each membrane. Explants are placed in a humidified chamber with 5% CO2 at 37° C. for a minimum of 18 hours prior to treatment. Cultures are then pre-treated with test compounds and returned to the incubator for a period of 10 minutes to 48 hours.\n(§2) Following the incubation period, cochlear samples are fixed in 4% paraformaldehyde for a minimum of 30 minutes after treatment then permeabilized in 0.5% Triton in PBS (PBST) for 1 hour, followed by overnight incubation at 4° C. in primary antibodies in 10% goat or donkey serum (Sigma). Samples are then rinsed in PBST 2 times for 10 minutes each then incubated in alexa-488 conjugated secondary antibodies for 2 hours at room temperature or overnight at 4° C. in 10% goat or donkey serum (Sigma). Samples are then rinsed 2 times in PBS then incubated in DAPI (1:3000) in PBS for 5 minutes prior to mounting on slides. To evaluate the otoprotective efficacy of the compounds, cochlear samples are immunostained using combination of antibodies generated against markers specific for hair cells (Myosin V1, Myosin VIIA, Parvalbumin, etc.), SGNs (TUJ1, Neurofilament, etc.), f-actin, cell death, cell stress, etc. as well as a nuclear stain to identify cell nuclei.\n(§3) Immunostained samples are mounted on glass slides and imaged with an LSM880 laser scanning confocal microscope (Zeiss) or an Operetta high-content imager (Perkin Elmer). The entire explant is imaged for all antibody and nuclear labeling in a 3-dimensional X-Y-Z plane in which the Z-plane consists of a stack imaged at intervals of 0.5-5 μm. The total length of the organ of Corti in each explant is then determined and is divided into 4 equal length regions. Basal, middle and apical hair cells or SGNS are counted at the regions approximately 25%, 50% or 75% of the total cochlear length from the base, respectively. Hair cell survival is determined by counting the number of inner and outer hair cells at these three different regions (base, middle and apex) in each cochlear explant and determining the number of missing/dead hair cells per cochlear region. Hair cell counts are obtained by placing a 200 μm length scale bar parallel to the rows of hair cells at each region and manually counting the total number of outer hair cells (OHCs) and inner hair cells (IHCs) within the 200 μm. Similarly, to evaluate the health and survival of SGNs, the density of SGN fibers or soma is also determined per region by manual counting for same region selected for counting hair cells. Nuclear staining is analyzed to confirm the presence or absence of cell nuclei and to evaluate nuclear health. Image analysis and quantification is performed using Zeiss Zen Blue software, or Perkin Elmer Columbus software.\n(§4) Neonatal (P2-P4) Sprague-Dawley rats were used for the experiments described here. Animals were euthanized following anesthesia using isoflurane. Rat cochleae were then dissected in cold HBSS medium enriched with glucose. […]"}, "[5]": {"assay": "Cisplatin reaction kinetics by HPLC", "settings": "50 μM cisplatin + 50 μM of compound (API) in PBS, pH 7.4, 37° C.", "experimental": "Reaction kinetics between Cisplatin and the compound of interest (nucleophile) were monitored by high performance liquid chromatography. Isocratic separation was achieved using a Waters Spherisorb C8 column (4×250 mm, 5 μm, 80 Å). The flow rate was set to 1.00 mL/min. The mobile phase consisted of 5 mM Sodium Octanesulfonate+5 mM Tetrabutyl Ammonium Hydrogen Sulfate+20 mM Potassium Dihydrogen Phosphate adjusted to pH 5.9. Detection was performed at a wavelength of 210 nm.\nReactions were conducted at equimolar concentrations in buffered aqueous media and held at 37° C. Rate constants (k) were determined by monitoring the disappearance of Cisplatin as a function of time."}, "[6]": {"tested_on": "spiral ganglion neurons (SGNs)", "assay": "Cochlear explant model: spiral ganglion neuron protection against cisplatin", "type": "cell-based, Sprague-Dawley rats", "description": "as §1, §2, §3, §4"}, "stria vascularis cells": {"tested_on": "stria vascularis cells", "assay": "Dissociated strial cultures, caspase 3/7 activation with cisplatin", "type": "cell-based, Sprague-Dawley rats", "experimental": "For strial explants, the stria vascularis is isolated from the cochlear tissue and transferred to a clean dish with cell culture media. For dissociated strial cultures, the stria vascularis is pulled off the lateral wall and collected separately. Strial cells are then dissociated using a pipette post-trypsinization and seeded onto Poly-d-lysine or collagen-coated 96-well plates. Cells are grown for 48-72 hours to achieve 80-90% confluency before treatment. […] Following treatment, cells are exposed to the Caspase-Glo 3/7 (Promega) reagent for 30 minutes then […] is read on a plate reader. In addition to the cell culture media described above, strial explants can also be maintained in the following media: MEM with Earle's salts, 15 mM HEPES buffer, 2 mM L-glutamine, 10 mg/L MEM non-essential amino acids, 2.5 mg/L fungizone, 100 units/ml penicillin, 100 mg/L streptomycin, 400 μg/L hydrocortisone, 5 mg/L transferrin, 2 nM triiodothyronine, 5 mg/L insulin, […], 10 μg/L epidermal growth factor, and 10% fetal bovine serum.\nFollowing cochlear dissection, Reissner's membrane and the lateral wall were separated and the stria vascularis was then removed from the lateral wall. […] After incubation, cells were lysed using the Promega caspase 3/7 Glo kit and the intensity of caspase 3/7 were read using Perkin-Elmer Enspire plate reader."}, "[7]": {"settings": "16 mg/ml in P407, IT 30 min prior CIS 12 mg/kg (IP)"}, "[8]": {"settings": "1.5 hour pretreatment followed by co-treatment at different concentrations with 10 μM cisplatin"}},
  "note": "Entries after “also recorded” stand apart in the source; their conditions may differ.",
  "data": [
    {"smiles": "O=S([O-])([O-])=S.[Na+].[Na+]", "note": "[STS, sodium thiosulfate, reference compound]", "values": [
      {"measurement": "protection of ABR thresholds", "setting": "[1]; [7]", "result": "less protection than in previous studies"},
      {"measurement": "In vivo PK in Cochlear Epithelium (24 h after dosing)", "setting": "[2]", "result": "~1100", "unit": "ng/gm CE"},
      {"measurement": "Cisplatin Binding % bound (in 30 min) at 1:10 ratio", "setting": "[3]", "result": 50, "unit": "%"},
      {"measurement": "Ex-vivo Efficacy Conc. for complete protection of hair cells", "setting": "[4]; ex vivo cochlear explants, cisplatin", "result": 100, "unit": "µM"},
      {"measurement": "k", "setting": "[5]", "result": 0.52, "unit": "M⁻¹ s⁻¹"}
    ]},
    {"smiles": "O=C(O)c1c[nH]c(=S)[nH]c1=O", "note": "[5-carboxy-2-thiouracil]", "values": [
      {"measurement": "SGN protection", "setting": "[6]; ex-vivo cochlear explants", "result": "good protection"},
      {"measurement": "Cisplatin Binding % bound (in 30 min) at 1:10 ratio", "setting": "[3]", "result": 95, "unit": "%"},
      {"measurement": "strial cell protection", "setting": "stria vascularis cells", "result": "good protection"},
      {"measurement": "EC100", "setting": "[4]", "result": "50 to 100", "unit": "µM"},
      {"measurement": "OHC protection", "setting": "[4]; ex-vivo cochlear explants", "result": "good protection"}
    ]},
    {"smiles": "O=c1cc(-c2ccccc2)[nH]c(=S)[nH]1", "note": "[OMY-150, 6-phenyl-2-thiouracil]", "values": [
      {"measurement": "protection of spiral ganglion neurons against cisplatin", "setting": "[6]; [8]", "result": "complete protection"},
      {"measurement": "protection of ABR thresholds", "setting": "[1]; [7]", "result": "strong protection"},
      {"measurement": "protection of ABR thresholds", "setting": "[1]; 50 mg/ml in P407, IT 30 min prior CIS 12 mg/kg (IP)", "result": "almost complete recovery"},
      {"measurement": "In vivo PK in Cochlear Epithelium (24 h after dosing)", "setting": "[2]", "result": "~1000", "unit": "ng/gm CE"},
      {"measurement": "plasma exposure after IT injection", "setting": "[2]; single IT injection", "result": "significantly lower (e.g. up to 10 times or more) plasma exposure than OMY-141; also recorded: lower plasma exposure than sodium thiosulfate (STS)"},
      {"measurement": "perilymph and cochlear epithelium exposure after IT injection", "setting": "[2]; single IT injection, MCT and/or poloxamer formulation", "result": "good perilymph and cochlear epithelium exposure"},
      {"measurement": "Cisplatin Binding % bound (in 30 min) at 1:10 ratio", "setting": "[3]", "result": 97, "unit": "%"},
      {"measurement": "protection of hair cells against cisplatin", "setting": "[4]; [8]", "result": "complete protection"},
      {"measurement": "EC100", "setting": "[4]", "result": 50, "unit": "µM"},
      {"measurement": "k", "setting": "[5]", "result": 0.50, "unit": "M⁻¹ s⁻¹"}
    ]}
  ]
}
